The record followed here is a melting point compilation (Tetko et al.; mined from patent text by program, amines drawn as free bases though some values may be those of a salt).

Structures are written as SMILES.

`OCc1cnn(-c2ccccc2)c1-c1ccccc1`: the melting point (usually the temperature of the solid-liquid transition) was 147 to 148 °C. To `CNC(=O)NS(=O)(=O)c1cc2c(cc1OC)OC(C)(C)C(NC(=O)c1cc(Cl)ccc1OC)C2` (stereo not given) belongs 248 °C; to `O=C(O)c1cc([N+](=O)[O-])ccc1Nc1ccc(CCCCCc2ccc(Cl)c(Cl)c2)cc1`, 147 to 148 °C; to `CC(C)(C)NNC(=O)c1ccccc1CO`, 116 to 118 °C.

`CCCn1cc(C(=O)O)c2ccc(Cl)cc21` had a melting point of 179 to 180 °C. To `CCOc1nc(-c2cccc(Cl)c2)c2cc(C(O)(c3ccc(C(=O)OC(C)C)cc3)c3cncn3C)ccc2n1` (stereo not given) belongs 145 °C; to `O=c1[nH]c2cccc(Cl)c2c2cc(CO)nn12`, 295 to 296 °C; to `CC(=O)C1C(C)CC2C3CCC4CC(O)CCC4(C)C3C(=O)CC21C` (stereo not given), 138 to 140 °C.

In turn, `O=C(NC(=O)c1c(Cl)cccc1Cl)Nc1noc2ccccc12` returned a melting point of 212 to 215 °C.

Regarding `CC(=O)NC1=NN(c2cccc(C)c2)CC1`, the melting point fell in the range of 222 to 225 °C. Then `Cc1cc([N+](=O)[O-])ccc1N=C1SCC2(CCCC2)N1C1CCCC1`, with 118 to 119 °C; and `CCOC(=O)c1c[nH]c2nc(NCc3ccc(Br)cc3)nn2c1=O`, with 286 to 287 °C; and `c1ccc(-c2ccc3nc4c(nc3c2)-c2cccc3cccc-4c23)cc1`, with 194 to 195 °C. To `O=c1cc2c(n[nH]1)-c1ccccc1CC2` belongs 236 °C. Then `O=C(c1ccc2nonc2c1)N1CCCCC1`, with 88.5 to 90.5 °C. As for `Cc1ccccc1COc1cccnc1NC(=N)Nc1ccc(Cl)cc1`, the melting point lay in the range of 158 to 159 °C. Then `CCCCCCCCCCCCCCCCCCS(=O)(=O)Nc1ccc(O)cc1`, with 142 °C; and `CN(C(=O)c1cccc(C=O)c1)c1cccc(F)c1`, with 115 to 119 °C. To `O=C1NC(=O)c2c1c(-c1ccccc1)c(-c1ccccc1)c1[nH]c3ccc(O)cc3c21` belongs greater than 300 °C; to `Cc1ccc(C(=O)Nc2c[nH]nc2C(=O)NCCC#N)cn1`, 201 to 203 °C; to `Cc1c(F)c(Br)cc(Br)c1C(=O)O`, 144 to 146 °C. As to `CC(=O)SCC(Cc1ccccc1)C(=O)Nc1ccc(C(=O)O)c(Cl)c1` (stereo not given), the melting point was in the range of 145 to 148 °C. Then `CC(C)(C)OC(=O)N1CCC(CCOS(C)(=O)=O)CC1`, with 60 to 63 °C; and `CCn1nc(-c2ccccc2F)nc1-c1ccccc1C(F)(F)F`, with 72 to 74 °C. `CN(C)c1c(S(=O)(=O)C(F)(F)F)c(C#N)nn1-c1c(Cl)cc(C(F)(F)F)cc1Cl` displayed a melting point of 178 to 179 °C. Then `N#CC1(Cl)C=C(OCc2ccccc2)C=NC1` (stereo not given), with 114 to 115 °C.

Take `CCC1(Cl)C(=O)c2c(cc(OCC(=O)O)c(Cl)c2Cl)C1Cl` (stereo not given): the melting point was 186 °C.

For `FCc1cccc(C#CCCc2nc3ccccc3s2)n1`, the melting point fell in the range of 74 to 76 °C. Then `CC(=O)OC1CCc2oc3ccc(Br)cc3c(=O)c2C1` (stereo not given), with 178 °C. To `CCC(C)C(NS(=O)c1ccc(C)cc1)C1(C(=O)NC)SCCS1` (stereo not given) belongs 147 to 154 °C; to `O=C(O)Cc1cn(S(=O)(=O)c2c(Cl)nc3sccn23)c2ccccc12`, 220 to 222 °C. Then `O=C(CCN1CCC(C(O)c2ccc3ccccc3c2)CC1)Cc1ccc(F)cc1` (stereo not given), with 100 to 102 °C. `NC(=O)Cc1ccc(-c2ccc(F)cc2F)c(F)c1` gave a melting point of 137 to 140 °C. Then `COC[C@H]1C[C@@H](n2cnc3c(N[C@H]4CCN(c5ccc(C(F)(F)F)cn5)C4)ncnc32)[C@@H](O)[C@H]1O`, with 166 to 168 °C; and `Cc1cc2nc(NC(=O)CO)sc2cc1C`, with 206 to 208 °C; and `COc1ccc(-c2nc(N3CCN(C)CC3)c3c(C)c(C#N)sc3n2)cc1`, with greater than 250 °C. To `N#Cc1cc2cccc(NS(=O)(=O)c3cccs3)c2[nH]1` belongs 283 to 284 °C; to `C#CCOc1cc(N)ccc1C`, 75 to 77 °C; to `O=C(Nc1ccc2c(c1)CN(C(=O)OCc1ccccc1)CC2)OCc1ccccc1`, 113 to 115 °C. To `CN1CCC(Oc2noc3ccc(Cl)cc23)CC1` belongs 55 to 56 °C; to `COc1ccc(N(Cc2cccnc2)S(C)(=O)=O)c(OC)c1`, 117 to 119 °C.

Compound `COc1ccc(Cl)c(NC(=S)N(CCN2C(=O)c3ccccc3C2=O)OCc2ccccc2)c1Cl` showed a melting point of 175 to 176 °C. Then `CCCCCCCC/C=C\CCCCCCCC(O)CCCNC(=O)CCNC(C)=O` (stereo not given), with 103 to 108 °C. Then `O=C(N1CCc2cc(O)c(O)cc2C(c2ccccc2)C1)C(F)(F)F` (stereo not given), with 182 to 188 °C; and `O=S(=O)(CS(=O)(=O)/C(F)=C(/F)c1c(F)c(F)c(F)c(F)c1F)/C(F)=C(/F)c1c(F)c(F)c(F)c(F)c1F`, with 193 to 195 °C; and `O=C(OC1CCCCCCCCCCC1)c1ccccc1C(=O)OC1CCCCCCCCCCC1`, with 66 to 68 °C. `Cc1ncoc1C(C)(O)c1ccsc1` (stereo not given): the melting point is 87 to 89 °C. To `CC(=O)N1c2ccccc2C=Cc2ccccc21` belongs 121 °C; to `OC1CCSC(=S)N1c1ccc(Cl)cn1` (stereo not given), 136 to 137 °C. Then `CCSc1ccc(-c2coc3ccc(-c4nnc(C)o4)cc23)c(Cl)c1`, with 108 to 109 °C.

`COc1ccc(-c2csc(Nc3ccc(C)cn3)n2)cc1OC` returned a melting point of 190 to 192 °C. For the compound `CNc1c2c(nn1C)N(c1c(C)cc(C)cc1C)CCC2`, the melting point is 143 to 145 °C. Compound `CCOCCOc1ccc(-c2ccc3c(c2)C=C(C(=O)OC)CCN3C=O)cc1` registered a melting point of 138 to 142 °C.

For `OC(Cc1ccc(Cl)cc1Cl)(Cn1ccnc1)c1ccc(C2CCCCC2)cc1` (stereo not given), the melting point is 142 °C.

Take `OCCn1cc(-c2ccccc2)c(OCc2ccccc2)n1`: the melting point was determined as 115 °C. Then `COc1ccc(Cl)cc1C(=O)N(C)OC`, with 80 to 83 °C.

Regarding `CN(C(=O)c1ccc(-n2cccn2)cc1)C1CCN(C(=O)OC(C)(C)C)CC1`, the melting point is 164 to 166 °C. Then `COC(=O)c1c(-c2ccc3ccccc3c2)ccc2ccccc12`, with 139 to 140 °C; and `CCOC(=O)c1cc2cc(F)cc(NS(=O)(=O)c3cccs3)c2[nH]1`, with 174 to 175 °C; and `CCCc1c(C(=O)C(C)C)c2ccc(C(=O)O)cc2n1Cc1ccccc1[N+](=O)[O-]`, with 214 to 215 °C.

In turn, `CCOc1ccccc1C(=O)Nc1ccc2oc(Nc3ccc(CC)cc3)nc2c1` displayed a melting point of 182 °C. To `Cc1cccc(NC(=O)OC(C)(C)C)c1CNc1cccn2c(C=O)c(C)nc12` belongs 210 to 212 °C; to `Cc1cccc(C)c1CNc1cc(C(=O)N(C)CCO)cc2c1nc(C)n2C`, 177 to 178 °C; to `CCOC(CC)=C1SC(=S)N(c2ccccc2)C1=O`, 178 to 181 °C. Then `O=C(O)C(=O)c1ccc(OCc2cc3ccccc3o2)cc1`, with 120 °C.

For the compound `CC(C)C1=CC(C(C)C)(S(=O)(=O)n2c(C3(O)C=CC(=O)C=C3)cc3ccccc32)CC(C(C)C)=C1` (stereo not given), the melting point was in the range of 55 to 57 °C. Then `CCCCCCCCCCCCCCOc1cc(O)cc(C(=O)OC)c1`, with 92 to 94 °C. Consider `N#Cc1cc(NC(=O)c2ccn(-c3ccc(Cl)cc3)c2)ccc1N1CCN(CCO)CC1`, for which the melting point came to 196 °C.

As for `O=C(O)CCc1cn(Cc2ccc(OCc3ccc(-c4ccccc4)cn3)cc2)nc1-c1ccccc1`, the melting point lay within 149 to 150 °C. Then `Cc1c(Nc2c(C#N)cnc3sc(-c4ccc(OCCN(C)C)cc4)cc23)ccc2[nH]ccc12`, with 182 to 184 °C; and `CS(=O)(=O)c1ccc(-c2cnn(CC(F)(F)F)c(=O)c2OCCN2CCCCC2)cc1`, with 117 to 118 °C; and `O=C1C(c2ccccc2)OC(=S)N1Nc1ccccc1` (stereo not given), with 140 to 141 °C. To `NC(=O)N(c1ccccc1-c1nc(C2CC2)no1)C1CN2CCC1CC2` (stereo not given) belongs 229 to 233 °C; to `O=c1ccn(-c2ccc(-c3ccc(=O)[nH]n3)cc2)cc1`, 339 to 341 °C; to `Cc1oc(-c2ccco2)nc1/C=C/c1ccc(C=CC=C2OC(=O)NC2=O)cc1`, 290 to 291 °C.

Take `Cc1sc(CO)cc1CC#N`: the melting point was 66 to 68 °C.

`COC(=O)c1ccc2ccc3ccccc3c2c1C(=O)OC` had a melting point of 117 °C. Then `Cc1cc(CCCCCCCCOc2ccc(C3=NCCO3)cc2Cl)on1`, with 63 to 64 °C; and `O=C(O)C1=CSC2C(=Cc3cc4c(s3)-c3cccnc3SC4)C(=O)N12` (stereo not given), with 113 to 115 °C; and `CC(=O)c1c(C=O)[nH]c(-c2ccncc2)c1C`, with 208 to 209 °C.

Compound `CCOc1cccc2oc(C(N)=O)cc12` registered a melting point of 113 °C. Compound `COc1ccc(C2(c3ccc(OC)cc3)CCN(C[C@@H]3C=C4c5cccc6[nH]c(Cl)c(c56)C[C@H]4N(C)C3)CC2)cc1` came in with a melting point greater than 204 °C. Then `COC(=O)CCCC#Cc1cc(Cl)ccc1NS(=O)(=O)c1cc(C)cc(C)c1`, with 92 to 94 °C; and `COC(=O)c1cc(C)ccc1NC(=O)N(C)C`, with 92 °C. With `CSc1ccccc1N1CCN(Cc2nc3ccccc3[nH]2)CC1`, the melting point fell in the range of 214 to 216 °C. To `CCOC(=O)CN1C(=O)C(=S2CN(CC)c3ccccc32)SC1=S` (stereo not given) belongs 250 to 252 °C; to `O=Cc1ccc(O)c(CCl)c1`, 123 to 124 °C; to `CCOC(=O)Cn1c(C(=O)NCc2nncn2-c2sc(CC)cc2C(=O)c2ccccc2Cl)cc2ccccc21`, 158 to 160 °C. With `COc1cc2[nH]c(=O)c(=O)n(C)c2cc1[N+](=O)[O-]`, the melting point is 356 °C.

`O=C(c1ccc2nonc2c1)N1CC2CC1CO2` (stereo not given) showed a melting point of 102 to 104 °C.
